Data from US20120027812A1, “INTRAOCULAR LENSES TREATED WITH ALKYLPHOSPHOCHOLINES FOR PHARMACOLOGICAL AFTERCATARACT PROPHYLAXIS” (priority 2009, published 2012).

Legend:
[1] = Stability of the coating to washing with physiological saline solution; assay type: physicochemical; settings: repeated washing or rinsing with physiological saline solution
Excerpt: 1.3 Stability of the coating 10 intraocular lenses were coated with erufosin, as described in example 1.2. The lenses were subsequently each separately transferred into new test tubes and subjected to four washing steps with physiological saline solution. In a further extraction step using methanol/acetonitrile (ratio 9:1), the erufosin adhering to the lenses was removed and determined by mass spectroscopy. The amount of erufosin determined was between […] per lens.

rat retina [2] = experiment: Functional analysis on retina ex vivo (electroretinogram); settings: concentration of up to 25 μM in the total solution
[3] = tested on: human lens epithelial cells; experiment: APC-coated intraocular lens laid on cultured lens epithelial cells (Example 3, FIG. 6 and 7); assay type: cell-based; settings: as coating on IOLs of hydrophobic acrylates, hydrophilic acrylates and silicones; MTT
Description: A tetrazolium reduction assay [MTT (3-[4,5-dimethylthiazol-2-yl]-2,5-diphenyltetrazolium bromide] (Sigma-Aldrich) was carried out to determine the cell count. The intraocular lenses were removed, the cells were washed with PBS and incubated with the MTT reagent for 1 hour at 37° C. Only vital cells metabolise the solution. Subsequently, the cell membrane was dissolved with DMSO (dimethylsulphoxide) and the optical thickness was measured in the ELISA reader at 550 nm. In this case, the optical thickness correlates with the number of proliferating cells.
The intraocular lenses coated with alkylphosphocholines are introduced into a cell culture volume of 500 μl, which corresponds to the volume of the human lens capsular bag in which the intraocular lenses are implanted in the human cataract operation. Moreover, the coated intraocular lenses in vitro are introduced into a cell culture with human lens epithelial cells which are already proliferating. […]
Effectiveness of an Intraocular Lens Coated with APCs in the Prophylaxis of Aftercataract Intraocular lenses are coated with APC, as explained in Example 1,m and kept sterile at room temperature. […] After 3, 5 and 7 days, the lenses are removed and the cell count of the cells left in the cell culture dishes are determined, as described in 2.1, by cell counters and by the MTT test. […]

[4] = tested on: Müller glial cells and subretinal pigment epithelial cells; settings: single intravitreal administration one day after induced retinal detachment; cited from earlier work
rat eyes (retina) = settings: seven days after a single injection into the vitreous body; cited from earlier work
cat eyes (retina) = experiment: Long-term tolerance after intravitreal administration in cat eyes; assay type: in vivo; settings: 28 days after intravitreal administration
rat retina [5] = settings: clinically administered doses (4 mg/ml); cited from earlier work

Compound: CCCCCCCC/C=C\CCCCCCCCCCCCOP(=O)([O-])OCCC[N+](C)(C)C [ErPC3, erucylphosphohomocholine]
- removal of the coating from the lenses [1]: no noticeable removal
- changes in the electroretinogram (rat retina [2]): did not produce any changes in the electroretinogram
- cell growth of lens epithelial cells which are already proliferating [3]: can inhibit the cell growth
- intraretinal proliferation of Müller glial cells and subretinal pigment epithelial cells [4]: significant inhibition
- morphologically detectable toxic side-effects [4]: without morphologically detectable toxic side-effects

Compound: CCCCCCCC/C=C\CCCCCCCCCCCCOP(=O)([O-])OCC[N+](C)(C)C [ErPC, erucylphosphocholine]
- damage to the retinal function (light and electron microscopy, ERG) (rat eyes (retina)): no damage to the retinal function could be detected
- retinal toxicity (cat eyes (retina)): no sign of retinal toxicity

Compound: CCCCCCCC/C=C\CCCCCCCCOP(=O)([O-])OCC[N+](C)(C)C [OIPC, oleylphosphocholine]
- cell growth of lens epithelial cells which are already proliferating [3]: can inhibit the cell growth

Compound: C[C@]12C=CC(=O)C=C1CC[C@H]1[C@@H]3C[C@@H](O)[C@](O)(C(=O)CO)[C@@]3(C)C[C@H](O)[C@@]12F [triamcinolone]
- retinal toxicity on the retina ex vivo test subject (rat retina [5]): retinal toxicity
